Measurements as given in paper PMC11960675, “3-Deazaguanosine inhibits SARS-CoV-2 viral replication and reduces the risk of COVID-19 pneumonia in hamster” (iScience, 2025).
Several values for one entry are separate records, joined by “and”; a condition that tells them apart may be missing. Equal entries are not always repeated. Where two headings read alike, the source gives them in different places.

Key:
[1] = Cytotoxicity by WST-8 assay using uninfected Vero E6 cells; format: cell-based; settings: African green monkey
SARS-CoV-2 [2] = assay: microbe, parasite or virus in culture; format: cell-based; settings: MOI 0.001, day 3 post-infection; for EC50: Severe acute respiratory syndrome coronavirus 2, Vero C1008, 72 h, footnote a: CPE assay, SARS-CoV-2-infected Vero E6 cells, read-out: EC50 (anti-SARS-CoV-2 activity, CPE assay); for Anti-SARS-CoV-2 activity by CPE assay (crystal violet staining): Vero E6 cells, 30 μM in Figure 2
SARS-CoV-2 [3] = assay: Syrian hamster model of COVID-19, intraperitoneal treatment; settings: for Body weight change of infected hamsters / Inflammatory area of lung sections: IP, 2 at 110 mg/kg/day qd, Molnupiravir 220 mg/kg/day bid; for Inflammatory area of lung sections: lung histopathology 5 dpi
SARS-CoV-2 [4] = assay: qRT-PCR of viral RNA using SARS-CoV-2-infected Vero E6 cells; format: cell-based; settings: Severe acute respiratory syndrome coronavirus 2, Vero C1008, footnote b: qRT-PCR of viral RNA, MOI 0.001, non-linear curve fit, read-out: EC50 (95% CI) (anti-SARS-CoV-2 activity, qRT-PCR of viral RNA)
SARS-CoV-2 [5] = assay: Syrian hamster model of COVID-19, inhalation treatment by nebulizer; settings: for Inflammatory area of lung sections: lung histopathology 5 dpi, INH 110 mg/kg/day qd
[6] = biological target: recombinant SARS-CoV-2 RdRp complex (Severe acute respiratory syndrome coronavirus 2, UniProt P0DTD1); format: biochemical; settings: 10 μM, 34°C, 2 h
[7] = biological target: T1, vaccinia capping enzyme (VCE) (Vaccinia virus, UniProt P04298); format: biochemical; settings: model RNA fragment, 37°C, 2 h, LC-MS
T1 construct: purchased CellScript C-SCCS2250

[8] = WST-8 assay, uninfected Vero E6 cells, read-out: CC50

| Structure (SMILES) | CC50 [1] [µM] | EC50 (SARS-CoV-2 [2]) [µM] | Anti-SARS-CoV-2 activity by CPE assay (crystal violet staining) (SARS-CoV-2 [2]) | EC50 (SARS-CoV-2 [4]) [µM] | also measured |
| --- | --- | --- | --- | --- | --- |
| Nc1nccc2c1ncn2[C@@H]1O[C@H](CO)[C@@H](O)[C@H]1O [Compound 1, 3-deazaadenosine] | > 200 | > 30 | – | – | – |
| Nc1cc2c(ncn2[C@@H]2O[C@H](CO)[C@@H](O)[C@H]2O)c(=O)[nH]1 [Compound 2, 3-Deazaguanosine] | > 200 | – | inhibited viral replication | 1.14 | Lower infectious viral titer in lungs (fold) (SARS-CoV-2 [3]; 2 dpi, IP 110 mg/kg/day qd): > 10^5 fold; Body weight change of infected hamsters (SARS-CoV-2 [3]): marginal reduction in body weight; Inflammatory area of lung sections (SARS-CoV-2 [3]): 0.02 ± 0.02%; Lower infectious viral titer in lungs (fold) (SARS-CoV-2 [5]; 5 dpi, inhalation, approximately 110 mg/kg/day qd): more than 10^2 fold; Body weight loss associated with infection (SARS-CoV-2 [5]; inhalation, approximately 110 mg/kg/day qd): reduction in the body weight loss; Inflammatory area of lung sections (SARS-CoV-2 [5]): 0.98 (±0.36) % and 0.98 ± 0.36% |
| Nc1cc2c(ncn2[C@@H]2O[C@H](COP(=O)(O)OP(=O)(O)OP(=O)(O)O)[C@@H](O)[C@H]2O)c(=O)[nH]1 [Compound 2-TP, 6-Amino-1-(β-D-ribofuranosyl)-1H-imidazo[4,5-c]pyridin-4(5H)-one 5′-triphosphate] | – | – | – | – | RNA synthesis by recombinant SARS-CoV-2 RdRp complex (fluorescence intensity) [6]: not inhibited; 5′-capped RNA formed by VCE in the presence of both GTP and the compound [7]: no 5′-capped RNA; 5′-capped RNA formed by VCE with the compound in place of GTP [7]: small amounts of 5′-C^3GpppA-capped RNA (IIIb) and 5′-m7C^3GpppG-capped RNA (IVb) |
| OC[C@H]1O[C@@H](n2cnc3c(O)nccc32)[C@H](O)[C@@H]1O [Compound 3, 3-deazainosine] | > 200 | > 30 | – | – | – |
| Nc1[nH]c(=O)c2ncn([C@@H]3O[C@H](CO)[C@@H](O)[C@H]3O)c2c1F [Compound 4, 3-fluoro-3-Deazaguanosine] | > 200 | > 30 | loss of anti-viral activity | – | – |
| Nc1[nH]c(=O)c2ncn([C@@H]3O[C@H](CO)[C@@H](O)[C@H]3O)c2c1Cl [Compound 5, 3-chloro-3-Deazaguanosine] | > 200 | > 30 | loss of anti-viral activity | – | – |
| Nc1cc2c(ncn2[C@@H]2O[C@H](CO)[C@@H](O)[C@H]2O)c(N)n1 [Compound 6, 4,6-Diamino-1-β-D-ribofuranosyl-1H-imidazo[4,5-c]pyridine] | > 200 | > 30 | no inhibitory effects | – | – |
| Nc1cc2[nH]cnc2c(=O)[nH]1 [Compound 10, 6-Amino-1H-Imidazo[4,5-c]pyridin-4(5H)-one] | – | – | had anti-SARS-CoV-2 activity | 12.6 | CC50 [1, 8]: > 200 µM |
| Nc1cc2c(ncn2[C@H]2C[C@H](O)[C@@H](CO)O2)c(=O)[nH]1 [Compound 11, 6-Amino-1-(2-deoxy-β-D-ribofuranosyl)-1H-imidazo[4,5-c]pyridin-4(5H)-one] | > 200 | – | had anti-SARS-CoV-2 activity | 5.35 | – |
| CC(C)C(=O)OC[C@H]1O[C@@H](n2ccc(NO)nc2=O)[C@H](O)[C@@H]1O [Molnupiravir, reference compound] | – | – | – | – | Body weight change of infected hamsters (SARS-CoV-2 [3]): marginal reduction in body weight; Inflammatory area of lung sections (SARS-CoV-2 [3]): 0.24 ± 0.16%; Inflammatory area of lung sections (SARS-CoV-2 [5]): 4.77 (±3.04) % |
| O=c1nc(NO)ccn1[C@@H]1O[C@H](CO)[C@@H](O)[C@H]1O [NHC, N^4-hydroxy cytidine, reference compound] | > 200 | – | – | 0.27 | – |
| CCC(CC)COC(=O)[C@H](C)N[P@](=O)(OC[C@H]1O[C@@](C#N)(c2ccc3c(N)ncnn23)[C@H](O)[C@@H]1O)Oc1ccccc1 [Remdesivir, reference compound] | – | – | – | 0.47 | CC50 [1, 8]: > 200 µM |
| Nc1nc2c(ncn2[C@H]2CC[C@@H](COP(=O)(O)OP(=O)(O)OP(=O)(O)O)O2)c(=O)[nH]1 [ddGTP, 2′,3′-dideoxy GTP, reference compound] | – | – | – | – | RNA synthesis by recombinant SARS-CoV-2 RdRp complex (fluorescence intensity) [6]: reduced |
